IC50 data for 76 compounds are collected here from ChEMBL document CHEMBL1130201, “Antimalarial activity of molecules interfering with Plasmodium falciparum phospholipid metabolism. Structure-activity relationship analysis” (J Med Chem, 1997).

The assay has as its system Plasmodium falciparum. Description: Inhibitory activity against Plasmodium falciparum. The class given is functional, organism-based.

In general, IC50 refers to the concentration that inhibits the measured activity by half. A higher IC50 goes with weaker potency in that assay. In turn, `CCCCCCCCCCCC[N+](C)(C)C` registered an IC50 (Plasmodium falciparum) of 0.5 µM.
Same read-out and setting: in the case of `CCCCCCCCCCCCCC[N+](C)(C)CCO` it was 0.6 µM; in that of `NCCCO`, 800 µM.
Same read-out and setting: next, `CCCCCCCCCCCC[N+](C)(C)CCBr`: 0.21 µM; `C[N+]1(CCO)CCOCC1`: 4830 µM.
For `C[C@H]1O[C@@H](C[N+](C)(C)C)C[C@@H]1O`, the IC50 (Plasmodium falciparum) was above 200 µM.
On the same count and under the same terms, in the case of `CC(N)CO` (stereo unspecified) it was 300 µM; in that of `CCCCCCCCCCCCCCCCCC[N+](C)(C)CCO`, 1.3 µM.
The compound `CCCCCCCCCCCC[N+](CCC)(CCC)CCC` had an IC50 (Plasmodium falciparum) of 0.033 µM.
Still for that read-out and setting: in the case of `CCCCCCCCCCCC[N+](CC)(CC)CC` it was 0.064 µM; in that of `NC(CO)CO`, 50 µM; in that of `CCCCCCCCCCC[N+](C)(C)C`, 0.5 µM.
Still for that read-out and setting: in the case of `CCCCCCCCCCCC[N+](C)(CCO)CCCCCCCCCCCC` it was 0.84 µM; in that of `CCCCCCCCCC[N+](C)(C)CCO`, 0.97 µM.
In the case of `OCCN1CCCCC1`, the IC50 (Plasmodium falciparum) came out at 350 µM.
On the same count and under the same terms, in the case of `OCCN1CCN(CCO)CC1` it was 1200 µM; in that of `CCCCCCC[N+](C)(C)C`, 300 µM; in that of `CCCCCCCCCCCCCCCCCC[N+](CC)(CC)CCO`, 0.62 µM.
In the case of `CC[N+](CC)(CCO)CCCCC[N+](CC)(CC)CCO`, half-maximal inhibition (Plasmodium falciparum) (IC50) was put at 1260 µM.
As for `CCCCCCCCCCCCCCCCCC[N+](C)(C)Cc1ccccc1`, the IC50 (Plasmodium falciparum) is 0.7 µM.
Still for that read-out and setting: next, `OCCN1CC1`: 50 µM; `OC1CCNC1` (stereo unspecified): above 1000 µM.
On the same count and under the same terms, next, `CC[N+](C)(C)CCO`: above 300 µM; `CN(C)CCCCCCN(C)C`: 130 µM.
The same measure, in the same setting: next, `C[N+]1(CCCCC[N+]2(C)CCCC2)CCCC1`: 650 µM.
For the setting “Plasmodium falciparum”, `C[N+](C)(CCO)CC(=O)c1ccc(-c2ccc(C(=O)C[N+](C)(C)CCO)cc2)cc1` yielded an IC50 of 4 µM.
On the same count and under the same terms, in the case of `CC[N+](CC)(CCO)CCCCCCCCCC[N+](CC)(CC)CCO` it was 2 µM; in that of `CCCCCCCCCCCCNCCOC`, 2.1 µM.
Same read-out and setting: next, `CCCCCCCCCCCCCC[N+](CC)(CC)CCO`: 0.55 µM.
The compound `C[N+]1(CCCCCCCCCC[N+]2(C)CCCC2)CCCC1` yielded an IC50 (Plasmodium falciparum) of 0.15 µM.
The same measure, in the same setting: next, `CCCCCCCCC[N+](C)(C)C`: 1.6 µM; `CCCCCCCCCCCCNC(CC)CO` (stereo unspecified): 0.61 µM; `NCCCCCN`: 2000 µM.
In turn, `C[Se+](C)CCO` displayed an IC50 (Plasmodium falciparum) of 420 µM.
Same read-out and setting: in the case of `CCCCCCCCCCCCNCCO` it was 0.51 µM; in that of `CCC(N)(CO)CO`, 600 µM; in that of `CCCCCCCCCCCC[N+](C)(C)CCO`, 0.48 µM.
On to `CCCCCCCCCCCC[N+](CC)(CC)CCO`, for which the IC50 (Plasmodium falciparum) was 0.34 µM.
`C[N+](C)(C)CCCCCCCCCCCC[N+](C)(C)C`: under “Plasmodium falciparum”, inhibition was half-maximal at 0.09 µM (IC50).
Still for that read-out and setting: next, `OCCNCc1ccccc1`: 40 µM; `CCCCCCCCCCCC[N+](C)(C)CCCC`: 0.26 µM; `C[N+](C)(CCO)Cc1ccccc1`: 112 µM.
On the same count and under the same terms, in the case of `C[N+](C)(CCO)CCc1ccccc1` it was 110 µM; in that of `C[N+](C)(CCO)C1CCCCC1`, 120 µM; in that of `C[N+](C)(C)C1CCCCC1O` (stereo unspecified), 700 µM.
Same read-out and setting: in the case of `CCCCCCCCCC[N+](C)(C)C` it was 0.7 µM; in that of `OCCN1CCCC1`, 420 µM.
The compound `OC1CCCNC1` (stereo unspecified) registered an IC50 (Plasmodium falciparum) above 1000 µM.
The same measure, in the same setting: next, `CC(C)(C)CCO`: above 2000 µM.
The same measure, in the same setting: next, `CCCCC[N+](C)(C)CCO`: 81.3 µM.
In the case of `CCCCCCCCCCCC[N+](C)(C)CC`, under “Plasmodium falciparum”, inhibition was half-maximal at 0.11 µM (IC50).
In turn, `CC(O)CN` (stereo unspecified) showed an IC50 (Plasmodium falciparum) of 800 µM.
Still for that read-out and setting: in the case of `CCC(N)CO` (stereo unspecified) it was 80 µM; in that of `CCCCCCCCCCCC[N+](CC)(CCO)CCCCCCCCCCCC`, 1.5 µM.
Turning to `CC(Cc1ccccc1)[N+](C)(C)CCO` (stereo unspecified), where the note is “Plasmodium falciparum”, the IC50 worked out at 250 µM.
Same read-out and setting: in the case of `CCCCCCCCCCCC[N+](C)(C)CCCCCCCCCCCC` it was 0.7 µM; in that of `NCCCCCO`, above 2000 µM.
Consider `C[N+]1(CCO)CCCC1`, for which, for the setting “Plasmodium falciparum”, half-maximal inhibition (IC50) required 230 µM.
Same read-out and setting: in the case of `CCCCCCCCCCCCN(C)CCO` it was 1.3 µM; in that of `C[N+](C)(C)CCOP(=O)([O-])O`, 1200 µM.
Still for that read-out and setting: in the case of `CCCCCCCCCCCC[N+](C)(C)CCC` it was 0.15 µM; in that of `CC(=O)OCC[N+](C)(C)C` [ACETYLCHOLINE CHLORIDE], above 8000 µM.
With `C[N+](C)(C)CC(=O)O` [BETAINE], the IC50 (Plasmodium falciparum) is above 8000 µM.
Same read-out and setting: next, `C[N+](C)(C)CCCl` [CHLORMEQUAT CHLORIDE]: 200 µM; `NCCS` [CYSTEAMINE]: 200 µM; `CC(C)(N)CO` [DEANOL]: 900 µM.
As for `C[N+](C)(C)CCCCCCCCCC[N+](C)(C)C` [DECAMETHONIUM BROMIDE], for the setting “Plasmodium falciparum”, the midpoint of inhibition, the IC50, lay at 1.7 µM.
In turn, `OCCNCCO` [DIETHANOLAMINE] showed an IC50 (Plasmodium falciparum) of 1100 µM.
Turning to `CCN(CC)CCO` [DIETHYLAMINOETHANOL], the IC50 (Plasmodium falciparum) was 400 µM.
In the case of `CN(C)CCO` [DIMETHYLAMINOETHANOL], half-maximal inhibition (Plasmodium falciparum) (IC50) was put at 1300 µM.
The same measure, in the same setting: next, `C[N+](C)(C)CCCCCC[N+](C)(C)C` [HEXAMETHONIUM BROMIDE]: 700 µM; `CN(C)CCOC(=O)COc1ccc(Cl)cc1` [MECLOFENOXATE]: 500 µM; `CCCCCCCCCCCCCC[N+](C)(C)Cc1ccccc1` [MIRISTALKONIUM CHLORIDE]: 1 µM.
On the same count and under the same terms, next, `CC[N+](CC)(CC)CC` [TETRYLAMMONIUM BROMIDE]: 700 µM.
On the same count and under the same terms, next, `CCCCCCCCCCCCCCCCCC[N+](C)(C)C` [TRIMETHYL-OCTADECYL-AMMONIUM CHLORIDE]: 2.1 µM.
CETRIMIDE came in with an IC50 of 0.9 µM.
